Measurements taken from patent publication US20260086093A1, “METHODS TO DETERMINE DRUG TARGET RESIDENCE TIME AND TO SELECT BEST DRUG-TARGET CANDIDATES” (BiognoSYS AG, priority 2022, published 2026).

Key:
[1] = biological target: T1, phoshatase PP2A-alpha (PPP2CA) (Homo sapiens, UniProt P67775); assay: Jump-dilution LiP-MS residence-time pattern, Calyculin A on PPP2CA; format: binding; details: 0 to 60 minutes after 100-fold jump-dilution; FIG. 7
T1 construct: endogenous in cells; host or cells: native cellular proteome
Method: Native proteomes were incubated with the ligand of interested (Staurosporine or Calyculin A)—lower panel—or with the solvent (DMSO)—upper panel. The sample treated with DMSO serves as negative control, and it is used to confirm that the observed effect is derived from the interaction of the Ligand with its Targets. The proteomes were then diluted by a factor of 100 (jump-dilution method), and aliquots with a sample of the ligand-bound proteome were extracted at distinct time points after dilution. […] The samples incubated for the distinct times were then subjected to a limited proteolysis step using LiP-MS or DarkLiP-MS, and measured by mass spectrometry. […]
Calyculin A is a natural compound that acts as an potent and irreversible inhibitor of serine/threonine protein phosphatases. To show the application of the LiP-MS technology for the measurement of irreversible drug-residence times, the experimental workflow described in FIGS. 3, 4 and 5 was applied to the phosphatase inhibitor Calyculin A. Native cellular proteomes were treated with Calyculin A or DMSO (vehicle) in duplicates, diluted 100 fold and analyzed by LiP-MS. […]

Kynureninase (KYNU) = biological target: T2, Kynureninase (KYNU) (Homo sapiens, UniProt Q16719); assay: Jump-dilution LiP-MS, Calyculin A on non-target KYNU; format: binding; details: entire length of the experiment after 100-fold jump-dilution; FIG. 8
T2 construct: endogenous in cells; host or cells: native cellular proteome
T2 sequence (Q16719 1-465): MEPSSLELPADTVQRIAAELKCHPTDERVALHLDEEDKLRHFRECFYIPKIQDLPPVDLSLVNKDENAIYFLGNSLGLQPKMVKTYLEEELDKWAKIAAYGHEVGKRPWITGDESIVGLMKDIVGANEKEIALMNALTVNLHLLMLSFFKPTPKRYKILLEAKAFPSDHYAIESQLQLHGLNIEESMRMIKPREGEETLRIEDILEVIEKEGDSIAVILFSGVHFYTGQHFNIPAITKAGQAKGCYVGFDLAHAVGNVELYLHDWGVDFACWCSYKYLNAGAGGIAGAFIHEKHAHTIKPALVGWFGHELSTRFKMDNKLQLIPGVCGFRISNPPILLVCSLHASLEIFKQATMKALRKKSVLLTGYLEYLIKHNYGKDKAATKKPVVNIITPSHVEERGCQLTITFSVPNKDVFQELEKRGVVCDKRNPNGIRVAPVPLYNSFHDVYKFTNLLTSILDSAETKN
Method: (§1) Native proteomes were incubated with the ligand of interested (Staurosporine or Calyculin A)—lower panel—or with the solvent (DMSO)—upper panel. The sample treated with DMSO serves as negative control, and it is used to confirm that the observed effect is derived from the interaction of the Ligand with its Targets. The proteomes were then diluted by a factor of 100 (jump-dilution method), and aliquots with a sample of the ligand-bound proteome were extracted at distinct time points after dilution. Due to the reduction of the concentration of the Ligand in solution (as consequence to the jump-dilution), new binding events between Ligand and Target are very unlikely, and consequently it is expected that the proportion of Ligand-bound protein Target decreases over time, as the complex Ligand-Target dissociates. The samples incubated for the distinct times were then subjected to a limited proteolysis step using LiP-MS or DarkLiP-MS, and measured by mass spectrometry. In the right intensity (I) as a function of retention time (RT is given.
(§2) For both LiP-MS and DarkLiP-MS, the limited proteolysis is performed with the unspecific protease thermolysin. After incubation for a short amount of time, the reaction is stopped by addition of EDTA.
For processing of LiP-MS experiments (1), the samples are dried after stopping the reaction. […]

[2] = tested on: CDK1, CDK2, CDK4, CDK6, CDK7 and CDK9; details: towards CDK1, CDK2, CDK4, CDK6, CDK7 and CDK9; cited from earlier work
[3] = biological target: T3, Dual specificity mitogen-activated protein kinase kinase 3 (MP2K3) (Homo sapiens, UniProt P46734); assay: Jump-dilution LiP-MS residence time, complex MP2K3-Staurosporine; format: binding; details: for Half-life: time to 50% decrease of relative peptide abundance, 4-parameter logistic fit, 100-fold jump dilution, native cellular proteome
T3 construct: endogenous in cells; host or cells: native cellular proteome
T3 sequence (P46734 1-347): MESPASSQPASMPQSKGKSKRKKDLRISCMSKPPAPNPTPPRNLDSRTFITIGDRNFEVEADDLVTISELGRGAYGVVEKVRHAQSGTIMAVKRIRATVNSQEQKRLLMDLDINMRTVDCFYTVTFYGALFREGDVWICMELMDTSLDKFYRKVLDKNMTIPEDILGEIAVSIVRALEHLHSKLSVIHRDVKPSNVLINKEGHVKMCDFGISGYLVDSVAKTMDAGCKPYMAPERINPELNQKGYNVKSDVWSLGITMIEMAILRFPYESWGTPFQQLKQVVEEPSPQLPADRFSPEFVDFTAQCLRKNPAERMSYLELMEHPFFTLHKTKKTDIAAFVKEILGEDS
Method: as §1, §2
For processing of LiP-MS experiments (1), the samples are dried after stopping the reaction. After re-solubilization with urea, the partially-fragmented proteome is reduced and alkylated, diluted with ammonium bicarbonate, and treated with LysC and Trypsin to generate a fully fragmented peptide sample. This peptide sample is acidified with TFA and cleaned with a C18 resin before analysis by mass spectrometry.
Staurosporine is a natural compound that mimics the biological molecule ATP and acts as a promiscuous kinase inhibitor. Due to the similarities to ATP, Staurosporine has short residence times towards its protein Targets. To show the application of the LiP-MS technology for the measurement of short drug-residence times, the experimental workflow described in FIGS. 3, 4 and 5 was applied to the promiscuous kinase inhibitor Staurosporine. Native cellular proteomes were treated with Staurosporine or DMSO (vehicle) in duplicates, diluted 100 fold and analyzed by LiP-MS. The results of Example 1 are illustrated in FIG. 6. The graphs of FIG. 6 show the average abundances (y-axis) of four different peptides Peptide 1-Peptide 4 of the kinase MP2K3 measured between 0 and 60 minutes after jump-dilution (x-axis). The peptides Peptide 1-Peptide 4 are described in the database PeptideAtlas with the accessions PAp01457867, Pap00639637, PAp02016489 and PAp00503812. The graphs show a difference in peptide abundance between Staurosporine and DMSO, which is larger at earlier time points after dilution (between 0 and 30 min). The difference in abundance between Staurosporine-treated samples and DMSO decreases has time progresses.
Accordingly to equation 1, the residence-time of Staurosporine towards MP2K3 can be determined based on the half-life of the complex MP2K3-Staurosporine. Since the half-life of the complex MP2K3-Staurosporine corresponds to the interval of time that led to a reduction of peptide abundance by 50%, we fit the values of peptide abundance to a 4-parameter logistic curve. Thereby we obtained the time that corresponded to a decrease of relative peptide abundance by 50% (Table 2). Since each peptide generates a slightly different value for the half-life of the complex due experimental variability, we calculated the median of the 4 values obtained based on the four graphs of FIG. 6.

T1 sequence (P67775 whole entry): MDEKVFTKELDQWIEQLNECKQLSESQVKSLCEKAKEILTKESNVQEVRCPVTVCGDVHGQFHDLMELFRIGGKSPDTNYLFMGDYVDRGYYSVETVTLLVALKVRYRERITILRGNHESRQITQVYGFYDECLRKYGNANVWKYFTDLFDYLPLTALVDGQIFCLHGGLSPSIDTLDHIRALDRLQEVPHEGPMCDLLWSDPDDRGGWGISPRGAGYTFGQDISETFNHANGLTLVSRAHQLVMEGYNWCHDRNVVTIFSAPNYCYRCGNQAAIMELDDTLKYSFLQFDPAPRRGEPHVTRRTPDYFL

COC[C@@H]([C@H](O)[C@H](O)C(=O)NCC[C@H](C)c1nc(/C=C/C[C@@H]2O[C@]3(C[C@@H](O)[C@@H]2C)O[C@H]([C@H](C[C@H](O)[C@H](C)[C@H](O)[C@H](C)/C=C(C)/C(C)=C/C=C/C(C)=C\C#N)OC)[C@H](OP(=O)(O)O)C3(C)C)co1)N(C)C [Calyculin A]
Structural alteration of PPP2CA (Peptide 5 abundance vs DMSO) over time after jump-dilution [1]: did not disappear over time
Binding / structural alteration of KYNU (Peptide 6 intensity vs DMSO) (Kynureninase (KYNU)): did not bind to KYNU

C[C@@H](O)[C@@H](C)Oc1nc(Nc2ccc(S(=N)(=O)C3CC3)cc2)ncc1C(F)(F)F (stereo partly drawn) [Roniclib]
IC50 values [2]: nanomolar range

CN[C@@H]1C[C@H]2O[C@@](C)([C@@H]1OC)n1c3ccccc3c3c4c(c5c6ccccc6n2c5c31)C(=O)NC4 [Staurosporine]
Structural alteration of MP2K3 (peptide abundance vs DMSO) over time after jump-dilution ([3]; 0 to 60 minutes after 100-fold jump-dilution, FIG. 6): structural alteration disappeared over time
Half-life ([3]; Peptide 1 of MP2K3): 25 min
Half-life ([3]; Peptide 2 of MP2K3): 61 min
Half-life ([3]; Peptide 3 of MP2K3): 129 min
Half-life ([3]; Peptide 4 of MP2K3): 29 min
Median half-life ([3]; median of the 4 peptide half-lives): 45 min
